# Reference: ChEMBL document CHEMBL4619799, “Mechanistic Insight into Antiretroviral Potency of 2'-Deoxy-2'-β-fluoro-4'-azidocytidine (FNC) with a Long-Lasting Effect on HIV-1 Prevention” (J Med Chem, 2020)
# Active and inactive are the calls of the source. The rule behind the calls is not given here.
# What was measured:
# [1] = Cytotoxicity against human Hut/CCR5 cells assessed as reduction in cell viability at 0.1 to 10 nM measured after 120 hrs by MTT assay; format: cell-based; settings: 0.01 µM
# [2] = system: Human immunodeficiency virus 1; assay: Antiviral activity against HIV1 infected patient assessed as reduction in plasma viremia at 4 mg administered daily for 7 days measured 24 hrs post-last dose by qRT-PCR analysis; format: functional, organism-based
# [3] = Cmax in monkey plasma at 1 mg/kg, po administered as single dose by LC-MS/MS analysis; format: ADME, organism-based, Macaca mulatta; parameters: dose 1 mg/kg, route oral; settings: rhesus monkey
# [4] = AUC (0 to 24 hrs) in monkey plasma at 1 mg/kg, po administered as single dose by LC-MS/MS analysis; format: ADME, organism-based, Macaca mulatta; parameters: time < 24 hr, dose 1 mg/kg, route oral; settings: rhesus monkey
# [5] = Tmax in monkey PBMC assessed as FNC-TP level at 6 mg/kg, po administered as single dose by LC-MS/MS analysis; format: ADME, organism-based, Macaca mulatta; settings: rhesus monkey, in vivo
# [6] = system: Human immunodeficiency virus 1; assay: Antiviral activity against JRFL pseudotyped HIV1 infected in human Hut/CCR5 cells preincubated for 3 hrs followed by compound washout and subsequent compound redosing and measured after 72 hrs by luciferase reporter gene based assay; format: functional, organism-based; settings: Human immunodeficiency virus 1, Hut/CCR5
# [7] = system: Human immunodeficiency virus 1; assay: Antiviral activity against VSVG pseudotyped HIV1 infected in HEK293 cells preincubated for 3 hrs followed by compound washout and subsequent compound redosing and measured after 72 hrs by luciferase reporter gene based assay; format: functional, organism-based; settings: Human immunodeficiency virus 1, HEK293
# [8] = Tmax in monkey plasma at 1 mg/kg, po administered as single dose by LC-MS/MS analysis; format: ADME, organism-based, Macaca mulatta; settings: rhesus monkey
# [9] = Cytotoxicity against HEK293 cells assessed as cell viability by MTT assay; format: cell-based; settings: human
# [10] = target: Virion infectivity factor (Human immunodeficiency virus type 1 group M subtype B (isolate NY5)(HIV-1)) (UniProt P12504); assay: Inhibition of HIV1 HA-tagged Vif expressed in HEK293T cells co-expressing Myc-tagged pcDNA-APOBEC3G and pcDNA-ubiquitin-His assessed as reduction in Vif-mediated A3G polyubiquitination at 3.5 to 35 nM measured after 48 hrs by Western blot analysis; format: cell-based; settings: Human immunodeficiency virus 1, HEK-293T
# [11] = system: Human immunodeficiency virus 1; assay: Antiviral activity against HIV1 infected patient assessed as […] in CD4-positive T cell count at 4 mg administered daily for 7 days measured 24 hrs post-last dose by immunostaining based flow cytometry analysis; format: functional, organism-based
# [12] = Cytotoxicity against human Hut/CCR5 cells assessed as reduction in cell viability measured after 72 hrs by MTT assay; format: cell-based
# [13] = Tmax in monkey plasma at 6 mg/kg, po administered as single dose by LC-MS/MS analysis; format: ADME, organism-based, Macaca mulatta; settings: rhesus monkey
# [14] = Drug metabolism in human PBMC-derived CD4-positive T cells assessed as FNC-TP formation at 350 nM measured after 4 hrs by LC-MS/MS analysis; format: ADME; settings: 0.35 µM
# [15] = Ratio of Cmax in monkey plasma at 6 mg/kg, po administered as single dose measured after 1 hr to Cmax in monkey plasma at 6 mg/kg, po administered as single dose measured after 24 hrs; format: ADME, organism-based, Macaca mulatta; settings: rhesus monkey, in vivo
# [16] = Drug metabolism in human PBMC-derived CD14-positive monocytes assessed as FNC-TP formation at 350 nM measured after 4 hrs by LC-MS/MS analysis; format: ADME; settings: 0.35 µM
# [17] = target: Virion infectivity factor (Human immunodeficiency virus type 1 group M subtype B (isolate NY5)(HIV-1)) (UniProt P12504); assay: Inhibition of HIV1 HA-tagged Vif expressed in HEK293T cells co-expressing Myc-tagged pcDNA-APOBEC3G assessed as reduction in Vif-mediated A3G degradation at 10 nM measured after 48 hrs by Western blot analysis; format: cell-based; settings: Human immunodeficiency virus 1, HEK-293T
# [18] = Elimination half life in monkey PBMC assessed as FNC-TP level at 6 mg/kg, po administered as single dose by LC-MS/MS analysis; format: ADME, organism-based, Macaca mulatta; settings: rhesus monkey, in vivo
# [19] = Tmax in monkey PBMC assessed as FNC-TP level at 1 mg/kg, po administered as single dose by LC-MS/MS analysis; format: ADME, organism-based, Macaca mulatta; settings: rhesus monkey, in vivo
# [20] = system: Human immunodeficiency virus 1; assay: (§1) Antiviral activity against JRFL pseudotyped HIV1 infected in human Hut/CCR5 cells assessed as time needed to reach 50% reduction of virus infection at 1 nM incubated with cells for 4 hrs prior to compound washout followed by viral infection and measured after 72 hrs by luciferase reporter gene assay; format: functional
# [21] = Cmax in monkey PBMC assessed as FNC-TP level at 6 mg/kg, po administered as single dose by LC-MS/MS analysis; format: ADME, organism-based, Macaca mulatta; parameters: dose 6 mg/kg, route oral; settings: rhesus monkey, in vivo
# [22] = Effect on HLA-DR surface expression in IL2-induced human PBMC-derived CD14-positive monocytes at 100 nM measured after 48 hrs by immunostaining based flow cytometry; format: ADME; settings: 0.1 µM
# [23] = Tmax in Sprague-Dawley rat thymus at 0.5 mg/kg, po administered as single dose via gavage by LC-MS/MS analysis; format: ADME, organism-based
# [24] = Effect on CD69 surface expression in IL2-induced human PBMC-derived CD4-positive T cells at 100 nM measured after 48 hrs by immunostaining based flow cytometry; format: ADME; settings: 0.1 µM
# [25] = AUC (0 to 24 hrs) in monkey at 6 mg/kg, po administered as single dose by LC-MS/MS analysis; format: ADME, organism-based, Macaca mulatta; parameters: dose 6 mg/kg, time < 24 hr, route oral; settings: rhesus monkey, in vivo
# [26] = system: Human immunodeficiency virus 1; assay: Synergistic antiviral activity against JRFL pseudotyped HIV1 infected in human Hut/CCR5 cells assessed as combination index in presence of dolutegravir by luciferase reporter gene based assay; format: functional
# [27] = Effect on HLA-DR surface expression in IL2-induced human PBMC-derived CD4-positive T cells at 100 nM measured after 48 hrs by immunostaining based flow cytometry; format: ADME; settings: 0.1 µM
# [28] = Effect on CD69 surface expression in IL2-induced human PBMC-derived CD14-positive monocytes at 100 nM measured after 48 hrs by immunostaining based flow cytometry; format: ADME; settings: 0.1 µM
# [29] = Cmax in monkey plasma at 6 mg/kg, po administered as single dose measured after 24 hrs by LC-MS/MS analysis; format: ADME, organism-based, Macaca mulatta; parameters: dose 6 mg/kg, route oral; settings: rhesus monkey
# [30] = Elimination half life in monkey PBMC assessed as FNC-TP level at 1 mg/kg, po administered as single dose by LC-MS/MS analysis; format: ADME, organism-based, Macaca mulatta; settings: rhesus monkey, in vivo
# [31] = system: Human immunodeficiency virus 1; assay: as §1, with “at 10” for “at 1”; format: functional
# Homo sapiens = assay: In vivo inhibition of Vif-induced A3G degradation in HIV1 infected patient assessed as increase in A3G expression in CD4-positive T cells at 4 mg administered daily for 7 days measured 24 hrs post-last dose by Western blot analysis; format: functional, organism-based
# [32] = Effect on CD25 surface expression in IL2-induced human PBMC-derived CD4-positive T cells at 100 nM measured after 48 hrs by immunostaining based flow cytometry; format: ADME; settings: 0.1 µM
# [33] = system: Human immunodeficiency virus 1; assay: Potency index, ratio of lamivudine EC50 to test compound EC50 for antiviral activity against VSVG pseudotyped HIV1 infected in HEK293 cells; format: functional
# [34] = Selectivity index, ratio of CC50 for human Hut/CCR5 cells to EC50 for antiviral activity against JRFL pseudotyped HIV1 infected in human Hut/CCR5 cells; format: toxicity, cell-based; settings: read-out: Ratio CC50/EC50
# Chain of Virion infectivity factor (Human immunodeficiency virus type 1 group M subtype B (isolate NY5)(HIV-1)) (P12504 whole entry): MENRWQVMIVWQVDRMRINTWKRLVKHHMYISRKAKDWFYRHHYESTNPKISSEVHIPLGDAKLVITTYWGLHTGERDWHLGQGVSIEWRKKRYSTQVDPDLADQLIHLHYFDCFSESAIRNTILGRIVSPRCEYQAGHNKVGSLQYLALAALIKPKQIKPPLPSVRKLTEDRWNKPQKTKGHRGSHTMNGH
compound,measurement,setting,value
[N-]=[N+]=N[C@]1(CO)O[C@@H](n2ccc(N)nc2=O)[C@@H](F)[C@@H]1O [RO-0622],Activity,[1],Non-Toxic
same,Activity,[2],Active
same,Cmax,[3],196 nM
same,AUC(0-t) at 24 h,[4],0.499 µM·h
same,Tmax,[5],6 h
same,EC50,[6],0.0136 nM
same,EC50,[7],0.063 nM
same,Tmax,[8],1 h
same,CC50,[9],≥ 25000 nM
same,inhibition,[10],Active
same,Activity,[11],inactive
same,CC50 at 72 h,[12],340 nM
same,Tmax,[13],1 h
same,Drug metabolism,[14],Metabolite_Detected
same,Ratio,[15],320
same,Drug metabolism,[16],Metabolite_Detected
same,inhibition,[17],Active
same,beta t1/2,[18],112.4 h
same,Tmax,[19],6 h
same,Time,[20],83.14 h
same,Cmax,[21],4.07 nM
same,Activity,[22],Non-Toxic
same,Tmax,[23],7 to 12 h
same,Activity,[24],Non-Toxic
same,AUC(0-t) at 24 h,[25],7.58 µM·h
same,CI50,[26],0.01704
same,CI75,[26],0.01929
same,CI90,[26],0.02209
same,CI95,[26],0.0244
same,Activity,[27],Non-Toxic
same,Activity,[28],Non-Toxic
same,Cmax,[29],6.5 nM
same,beta t1/2,[30],133.15 h
same,Time,[31],123.06 to 123.1 h
same,inhibition,Homo sapiens,Active
same,Activity,[32],Non-Toxic
same,Ratio EC50,[33],4700
same,selectivity ratio,[34],25000
